Experimental data as given in patent US20240368133A1, “Compounds for the Treatment of Pain, in Particular, Neuropathic Pain, and/or Other Diseases or Disorders that are Associated with AT2R and/or AT2R Mediated Signaling” (Confo Therapeutics N.V., priority 2021, published 2024).

Experiments:
Type in all cases: in vitro ADME
[1] = Liver microsomal stability, mouse; details: male, pH 7.4, liver microsomes
Experimental: Mouse hepatic microsomes were isolated from pooled (50), perfused livers of male Balb/c mice. Rat hepatic microsomes were isolated from pooled (15), perfused livers of male Wistar rats. Isolation was performed according to the standard protocol (Hill, J. R. in Current Protocols in Pharmacology 7.8.1-7.8.11, Wiley Interscience, 2003). The batches of microsomes were tested for quality control using Imipramine, Propranolol and Verapamil as reference compounds.
Microsomal incubations were carried out in 96-well plates in 5 aliquots of 40 μL each (one for each time point). Liver microsomal incubation medium contained PBS (100 mM, pH 7.4), MgCl2 (3.3 mM), NADPH (3 mM), glucose-6-phosphate (5.3 mM), glucose-6-phosphate dehydrogenase (0.67 units/ml) with 0.42 mg of liver microsomal protein per ml. Control incubations were performed replacing the NADPH-cofactor system with PBS. Test compound (2 μM, final solvent concentration 1.6%) was incubated with microsomes at 37° C., shaking at 100 rpm. Incubations were performed in duplicates. Five time points over 40 minutes have been analyzed. The reactions were stopped by adding 12 volumes of 90% acetonitrile-water to incubation aliquots, followed by protein sedimentation by centrifuging at 5500 rpm for 3 minutes. […]. Supernatants were analyzed using the HPLC system coupled with tandem mass spectrometer (API3000 PE Sciex). Acquisition and analysis of the data were performed using Analyst 1.5.2 software (PE Sciex). The elimination constant (kel), half-life (t½) and intrinsic clearance (Clint) were determined in plot of […] versus time, using linear regression analysis:
Mouse hepatic microsomes were isolated from pooled, perfused livers of male CD1 mice. Rat hepatic microsomes were isolated from pooled, perfused livers of male Sprague Dawley rats. Dog hepatic microsomes were isolated from pooled, perfused livers of male Beagle dogs. The batches of microsomes were tested for quality control using Testosterone, Propranolol and Caffeine as reference compounds.
A 10 mM stock solution of compound in DMSO is diluted three-fold in DMSO. This pre-diluted compound solution is then further diluted to 2 μM in a 50 mM phosphate buffer (PBS, pH 7.4) and pre-warmed at 37° C. This compound dilution is mixed F2 with microsomal/cofactor mix at 37° C. under shaking at 300 rpm. Final reaction conditions are: 100 μL incubation volume, 1 μM of test compound (in duplicate), <0.1% DMSO, 0.5 mg/mL microsomes, 0.6 U/mL Glucose-6-phosphate-dehydrogenase (G6PDH, Roche, 10127671001), 3.3 mM MgCl2 (Sigma, M2670), 3.3 mM glucose-6-phosphate (Sigma, G-7879) and 1.3 mM NADP+ (Sigma, N-0505).
After 60 min of incubation at 300 rpm and 37° C., the reaction was stopped with 3 volumes of STOP solution (acetonitrile/MeOH 2/1 with diclofenac as internal standard). For the time point zero, 3 volumes of STOP solution were added to the compound dilution before the microsome mix was added. Six time points over 60 minutes have been analyzed. The samples of all time points were centrifuged, filtered and the supernatant analyzed by LCMS/MS (systems API4000).
The instrument responses (peak areas/IS peak area) were referenced to the zero time-point samples (considered as 100%) in order to determine the percentage of compound remaining.
Testosterone (1 μM) and Propranolol and Caffeine (1 μM) were used as reference compounds, being unstable and stable compounds respectively. If the microsomal stability values for these controls are not in the range determined by the historical data, the assay is not validated. The solubility of the compound in the final test concentration in 50 mM buffer pH 7.4 is checked by microscope to indicate whether precipitation is observed or not. If a precipitate is observed, no data of microsomal stability is generated.

CYP3A4 = CYP3A4 (Homo sapiens (Human), UniProt P08684); assay: CYP inhibition, CYP3A4; details: human; test compound at 10 μM, probe not marked; read-out: % Inhibition (PIN) 3A4
Experimental: (§1) The aim of this assay is to determine the inhibitory potential of a test compound. A major concern for drug-drug-interaction is cytochrome P450 inhibition. Reversible CYP inhibition was determined in human liver microsomes using specific probe substrates for human cytochrome P450 isoenzymes CYP1A2, 2C9, 2C19, 2D6 and 3A4.
The potential for CYP450 inhibition was assessed by performing in vitro inhibition studies using fluorogenic CYP450 substrates with the corresponding CYP450 enzymes and NADPH regeneration system (Vivid CYP450 Screening Kits) with some minor changes to the manufacturer's protocols. The fluorescent signal produced from reaction is directly proportional to the cytochrome P450 activity. In the cases when tested compounds interfere with the CYP450 enzyme-substrate reaction, the fluorescent signal decreases. In brief, the tested compounds were first dissolved in DMSO at 100× concentration (1 mM), and diluted in buffer to 2.5× concentration (25 μM). Then the 2.5× compound solutions were mixed with the Master Pre-mix consisting of Human CYP450+Oxidoreductase and NADP+Regeneration System (glucose-6-phosphate and glucose-6-phosphate dehydrogenase). After 10 minutes pre-incubation, the enzymatic reaction was initiated by the addition of a mix of NADPH and the appropriate CYP450 substrates. The plate was incubated for the desired reaction time (25 min for CYP1A2, CYP2C9, CYP2D6, and CYP3A4, 60 min for CYP2C19) after which Stop Reagent was added and fluorescence measured using SpectraMax Paradigm Multi-Mode Microplate Reader. All test points were performed in quadruplicates at concentration 10 μM (1% DMSO).
(§2) A 10 mM stock solution of test compound is prepared in methanol. This stock is further serially diluted 1:3 in methanol and then added to mixture containing 50 mM potassium phosphate buffer pH7.4, human liver microsomes (BD Gentest) and probe substrate. After pre-warming 5 min at 37° C., the reaction is started by adding co-factor mix ([…] glucose-6-phosphate, 1.7 mg/mL NADP, 6 U/mL of glucose-6-phosphate dehydrogenase), resulting in a final concentration of test compound at 10 μM (2% MeOH).
(§3) Final concentrations of co-factor mix components are as follows: 1.56 mg/mL glucose-6-phosphate, 0.34 mg/mL NADP, 1.2 U/mL of glucose-6-phosphate dehydrogenase.
(§4) After incubation at 37° C., the reaction (aliquot of 50 μL) is terminated with 150 μL CH3CN:MeOH (2:1) solution with internal standard (warfarin for 2C9, diclofenac for all other tested isoforms). Samples are centrifuged and the supernatant fractions analyzed by LC-MS/MS.
(§5) The instrument responses (ratio of test compound and internal standard peak areas) are referenced to those for solvent controls (assumed as 100%) in order to determine the percentage reduction in probe metabolism. Percent of control activity vs. concentration plots are generated and fitted using GraphPad Prism software to generate IC50.

CYP2D6 = CYP2D6 (Homo sapiens (Human), UniProt P10635); assay: CYP inhibition, CYP2D6; details: test compound at 10 μM, read-out: % Inhibition (PIN) 2D6
Experimental: as §1, with “3A4. […]” for “3A4.”
as §2, §3, §4, §5

Chain of CYP3A4 (P08684 whole entry): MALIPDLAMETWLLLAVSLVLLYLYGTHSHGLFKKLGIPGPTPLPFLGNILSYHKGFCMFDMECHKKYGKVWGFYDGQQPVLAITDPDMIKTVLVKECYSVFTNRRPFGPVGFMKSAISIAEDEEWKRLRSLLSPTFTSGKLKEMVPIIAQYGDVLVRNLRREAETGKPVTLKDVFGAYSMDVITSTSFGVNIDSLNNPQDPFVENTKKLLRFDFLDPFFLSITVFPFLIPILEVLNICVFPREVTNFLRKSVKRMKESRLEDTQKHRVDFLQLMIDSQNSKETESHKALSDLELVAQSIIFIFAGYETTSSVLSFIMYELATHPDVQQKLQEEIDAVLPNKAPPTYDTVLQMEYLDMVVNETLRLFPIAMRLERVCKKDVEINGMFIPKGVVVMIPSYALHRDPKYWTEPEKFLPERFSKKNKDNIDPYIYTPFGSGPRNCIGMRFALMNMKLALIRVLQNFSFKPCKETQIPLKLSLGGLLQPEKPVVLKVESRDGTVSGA
Chain of CYP2D6 (P10635 whole entry): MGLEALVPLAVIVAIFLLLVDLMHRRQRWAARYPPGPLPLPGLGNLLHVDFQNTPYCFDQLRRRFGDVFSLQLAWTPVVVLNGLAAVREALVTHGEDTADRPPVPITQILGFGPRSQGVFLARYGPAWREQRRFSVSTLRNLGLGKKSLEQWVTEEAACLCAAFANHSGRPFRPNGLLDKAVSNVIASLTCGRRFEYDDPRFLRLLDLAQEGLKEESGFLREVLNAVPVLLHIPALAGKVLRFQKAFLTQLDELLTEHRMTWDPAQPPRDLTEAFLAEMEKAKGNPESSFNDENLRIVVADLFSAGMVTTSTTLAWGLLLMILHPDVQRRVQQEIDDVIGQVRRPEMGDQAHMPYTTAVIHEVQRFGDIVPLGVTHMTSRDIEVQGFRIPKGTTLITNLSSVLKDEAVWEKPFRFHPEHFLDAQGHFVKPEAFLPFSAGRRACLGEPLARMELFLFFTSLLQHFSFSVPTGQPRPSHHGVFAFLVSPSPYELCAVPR

| microsomal CLint [1] | inhibition at 10 µM (CYP3A4) | inhibition at 10 µM (CYP2D6) | SMILES |
| --- | --- | --- | --- |
| 5 µL/min/mg | 29.4% | 16.3% | CC(C)Cc1cc(F)c(-c2nn[nH]n2)c(N2CCN(Cc3cccnn3)C(C)C2)c1 (stereo not drawn) [Compound A-173, 3-[[4-[3-fluoro-5-isobutyl-2-(2H-tetrazol-5-yl)phenyl]-2-methyl-piperazin-1-yl]methyl]pyridazine] |
| 10 µL/min/mg | 55.3% | 1.84% | CC(C)Cc1ccc(-c2nn[nH]n2)c(N2CCN(Cc3cccnn3)CC2)c1 [Compound A-90, 3-[[4-[5-isobutyl-2-(2H-tetrazol-5-yl)phenyl]piperazin-1-yl]methyl]pyridazine] |
| 15.3 µL/min/mg | 36% | 9.35% | CC(C)Cc1cc(F)c(-c2nn[nH]n2)c(N2CCN(Cc3cccnn3)[C@@H](C)C2)c1 [Compound A-174, 3-[[(2S)-4-[3-fluoro-5-isobutyl-2-(2H-tetrazol-5-yl)phenyl]-2-methyl-piperazin-1-yl]methyl]pyridazine] |
